The text below walks through data of ChEMBL document CHEMBL1201862, “PubChem BioAssay data set” (2004).

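Following 48 hours of exposure in 96-well plates, responses at five concentrations were used to interpolate endpoints linearly. The concentration for 50% growth inhibition is given as GI50.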 Calls of active or inactive are those of the source. No stated cut-off is given here; in the data, active = GI50 up to about 1.1 µM and inactive = higher.

Test systems include SK-MEL-2; OVCAR-8; HCT-116; UACC-62; HCT-15; EKVX; ACHN; NCI-H23; RXF 393; SF-295; Malme-3M; SF-268; SR; OVCAR-5; SF-539.
Common to all, as to assay: DTP human tumour cell line panel, 48 h

In general, GI50 refers to the concentration giving 50% growth inhibition. For the compound `CCN(CC)c1ccc(/N=C2/C=CC(=C(C#N)C#N)c3ccccc32)c(C)c1`, the GI50 with SK-MEL-2 is 2.08 µM (inactive); in the assay with OVCAR-8, 2.23 µM (inactive); in the assay with HCT-116, 1.95 µM (inactive); in the assay with UACC-62 it was 1.38 µM (inactive); in the assay with HCT-15, 2.15 µM; in the assay with EKVX, 3.21 µM (inactive). The GI50 in the assay on ACHN was 2.59 µM (inactive); with NCI-H23, 1.58 µM (inactive); in the assay on RXF 393, 1.08 µM (active); in the assay on SF-295, 2.28 µM (inactive); in the assay with Malme-3M, 1.87 µM (inactive).
In the case of `Cc1cccc(C)c1NC(=O)C(=O)CC(=O)c1cccc([N+](=O)[O-])c1`, the GI50 in the assay on SF-268, with SK-MEL-2, in the assay with OVCAR-8, in the assay with HCT-116, in the assay on UACC-62 and with SR was > 100 µM (inactive) in each case. Further, the GI50 in the assay with HCT-15 was above 100 µM; in the assay on EKVX, > 100 µM (inactive); in the assay on OVCAR-5, > 100 µM (inactive); in the assay with ACHN it was > 100 µM (inactive); in the assay with NCI-H23, > 100 µM (inactive); in the assay on SF-539 it was > 100 µM (inactive). Moreover, the GI50 in the assay on SF-295 and in the assay on Malme-3M was > 100 µM (inactive) throughout.
Regarding `CSc1nc(-c2ccccc2)nc(N2CCOCC2)[s+]1`, the GI50 is > 100 µM (inactive) with SF-268; > 100 µM (inactive) in the assay on SK-MEL-2; > 100 µM (inactive) in the assay on OVCAR-8; > 100 µM (inactive) in the assay with HCT-116; 28.6 µM (inactive) with UACC-62; 16.6 µM (inactive) in the assay on SR. Also, the GI50 was 37.8 µM in the assay on HCT-15; > 100 µM (inactive) with EKVX; > 100 µM (inactive) in the assay on OVCAR-5; > 100 µM (inactive) in the assay on ACHN; > 100 µM (inactive) in the assay with NCI-H23; > 100 µM (inactive) in the assay on SF-539. In addition, the GI50 was 21.3 µM (inactive) in the assay with RXF 393 and > 100 µM (inactive) with Malme-3M.
Regarding `COc1ccc([C@@H]2OC(=O)C3C2C(=O)O[C@H]3c2ccc(OC)c(OC)c2)cc1OC` (stereo partly specified), the GI50 in the assay on SF-268 was > 100 µM (inactive); in the assay on SK-MEL-2, > 100 µM (inactive); in the assay with OVCAR-8, > 100 µM (inactive); in the assay with HCT-116 it was > 100 µM (inactive); in the assay on UACC-62, > 100 µM (inactive); with HCT-15, above 100 µM. The GI50 with EKVX, with ACHN, in the assay on NCI-H23, in the assay on SF-539, in the assay with RXF 393 and in the assay with SF-295 was > 100 µM (inactive) throughout. In addition, in the assay on Malme-3M, the GI50 was > 100 µM (inactive).
As to `COc1ccc(CC(=O)c2cc(OC)c(OC)cc2C)cc1OC`, the GI50 is 89.3 µM (inactive) with SF-268; > 100 µM (inactive) with SK-MEL-2; > 100 µM (inactive) in the assay on OVCAR-8; 38 µM (inactive) in the assay with UACC-62; 46.5 µM in the assay with HCT-15; 63 µM (inactive) in the assay on EKVX. The GI50 in the assay with OVCAR-5 was > 100 µM (inactive); in the assay with ACHN it was 29.4 µM (inactive); with NCI-H23 it was 20.5 µM (inactive); in the assay on SF-295 it was 57.4 µM (inactive); in the assay on Malme-3M, > 100 µM (inactive).
On to `Cc1ccc(S(=O)(=O)c2ccc(NC(=O)SCCC(=O)O)cc2)cc1`, for which the GI50 in the assay with SF-268, in the assay on SK-MEL-2, with OVCAR-8, with HCT-116, in the assay on UACC-62 and with SR was > 100 µM (inactive) each time. Besides, the GI50 is above 100 µM in the assay with HCT-15; > 100 µM (inactive) in the assay on EKVX; > 100 µM (inactive) in the assay on OVCAR-5; > 100 µM (inactive) in the assay on ACHN; > 100 µM (inactive) in the assay with NCI-H23; > 100 µM (inactive) with SF-539. Further, the GI50 in the assay with RXF 393 and with SF-295 was > 100 µM (inactive) throughout.
`NC(=S)N/N=C(\C(=O)Nc1cccc([N+](=O)[O-])c1)c1nc2ccc([N+](=O)[O-])cc2nc1O`: the GI50 is > 100 µM (inactive) with SF-268; > 100 µM (inactive) with SK-MEL-2; > 100 µM (inactive) with OVCAR-8; 58.5 µM (inactive) in the assay on HCT-116; 51.4 µM (inactive) in the assay with UACC-62; 29.4 µM with HCT-15. The GI50 in the assay with EKVX is 54.3 µM (inactive); in the assay with OVCAR-5, > 100 µM (inactive); in the assay on ACHN, 21.4 µM (inactive); in the assay on NCI-H23 it was > 100 µM (inactive); in the assay with SF-539 it was 63.1 µM (inactive); in the assay on RXF 393 it was > 100 µM (inactive). The GI50 in the assay with SF-295 and in the assay on Malme-3M was > 100 µM (inactive) each time.
`NCCCNCCSSCCCCS(=O)O`: the GI50 in the assay with SF-268 is 18.1 µM (inactive); in the assay with OVCAR-8, 38.6 µM (inactive); in the assay on HCT-116 it was 25.7 µM (inactive); in the assay with UACC-62, 15.7 µM (inactive); in the assay on SR it was 3.37 µM (inactive); in the assay with HCT-15 it was above 100 µM. Besides, the GI50 in the assay with EKVX is 85.7 µM (inactive); in the assay with OVCAR-5 it was 55.1 µM (inactive); with ACHN, 55.2 µM (inactive); with NCI-H23, 17.7 µM (inactive); with SF-539, 80 µM (inactive); in the assay on RXF 393, 30.3 µM (inactive). The GI50 in the assay with SF-295 was 36.2 µM (inactive); in the assay on Malme-3M, 20.3 µM (inactive).
As for `Cc1ccc(C)c(N2C(=O)C(=O)C(c3nc4ccccc4s3)C(=O)C2=O)c1`, the GI50 in the assay with SF-268 is > 100 µM (inactive); with SK-MEL-2, > 100 µM (inactive); in the assay with OVCAR-8, > 100 µM (inactive); with HCT-116 it was > 100 µM (inactive); with UACC-62, > 100 µM (inactive); in the assay on HCT-15, above 100 µM. Moreover, the GI50 in the assay on EKVX is > 100 µM (inactive); with OVCAR-5 it was 71.8 µM (inactive); with ACHN, > 100 µM (inactive); in the assay with NCI-H23, > 100 µM (inactive); in the assay with SF-539, > 100 µM (inactive); in the assay with RXF 393 it was > 100 µM (inactive). Moreover, the GI50 in the assay on SF-295 and in the assay on Malme-3M was > 100 µM (inactive) each time.
On to `[Zn+2][N+]12CCN3CCN4CCN(CC1)[PH]432` (stereo unspecified), for which the GI50 in the assay on SK-MEL-2 was > 100 µM (inactive); in the assay with OVCAR-8, > 100 µM (inactive); with HCT-116 it was > 100 µM (inactive); in the assay with UACC-62, > 100 µM (inactive); with SR, > 100 µM (inactive); in the assay with HCT-15, above 100 µM. Further, the GI50 in the assay with EKVX, in the assay with OVCAR-5, in the assay on ACHN, in the assay on NCI-H23, in the assay with SF-539 and in the assay with RXF 393 was > 100 µM (inactive) throughout. Further, the GI50 in the assay with SF-295 and in the assay with Malme-3M was > 100 µM (inactive) throughout.
In the case of `COc1ccc(S(=O)(=O)NNS(C)(=O)=O)cc1`, the GI50 in the assay on SF-268 was > 100 µM (inactive); in the assay on SK-MEL-2 it was 60.5 µM (inactive); in the assay with OVCAR-8, > 100 µM (inactive); with HCT-116, > 100 µM (inactive); with UACC-62, > 100 µM (inactive); in the assay with SR, > 100 µM (inactive). For the same compound, the GI50 in the assay with HCT-15 was above 10 µM; in the assay on EKVX it was > 100 µM (inactive); in the assay on ACHN it was > 100 µM (inactive); in the assay on NCI-H23, > 100 µM (inactive); in the assay on SF-539, > 100 µM (inactive); in the assay on RXF 393 it was > 100 µM (inactive). Besides, the GI50 with SF-295 and in the assay on Malme-3M was > 100 µM (inactive) each time.
For the compound `CC(=O)Nc1ccc(-c2nnc(SCC(=O)Nc3ccc(C)cc3)o2)cc1`, the GI50 was 20.1 µM (inactive) with SF-268; 14.5 µM (inactive) with SK-MEL-2; 27.7 µM (inactive) in the assay on OVCAR-8; 15.7 µM (inactive) with HCT-116; 16.9 µM (inactive) with UACC-62; 28 µM (inactive) with SR. In addition, the 50% growth inhibitory concentration (GI50) in the assay with HCT-15 was 16.2 µM; with OVCAR-5, 19.6 µM (inactive); in the assay with ACHN, 31.6 µM (inactive); in the assay on NCI-H23, 15.7 µM (inactive); in the assay on SF-539, 13.5 µM (inactive); in the assay on RXF 393, 19 µM (inactive). Besides, the values for the GI50 in the assay with SF-295 and with Malme-3M were 16.6 µM (inactive) and 15.7 µM (inactive), respectively.
As for `CC(=O)N1C/C(=C\c2ccc(N(C)C)cc2)C(=O)/C(=C/c2ccc(N(C)C)cc2)C1`, the GI50 in the assay with SF-268 was 66.2 µM (inactive); in the assay on OVCAR-8 it was 84.1 µM (inactive); with HCT-116 it was 40.6 µM (inactive); in the assay on UACC-62, 30.1 µM (inactive); in the assay with SR it was 35.6 µM (inactive); with HCT-15 it was above 100 µM. In addition, the GI50 was > 100 µM (inactive) in the assay on OVCAR-5; 87.5 µM (inactive) in the assay on ACHN; > 100 µM (inactive) with NCI-H23; 27.1 µM (inactive) with SF-539; 41.6 µM (inactive) with RXF 393; 52.6 µM (inactive) with SF-295. Moreover, in the assay on Malme-3M, the GI50 was 75.7 µM (inactive).
Take `CN(C)CCC(CCN(C)C)=NOC(=O)c1ccccc1`: the GI50 in the assay on SF-268 is > 100 µM (inactive); in the assay with SK-MEL-2, > 100 µM (inactive); with OVCAR-8, > 100 µM (inactive); in the assay on HCT-116 it was > 100 µM (inactive); in the assay on UACC-62, > 100 µM (inactive); in the assay on HCT-15 it was above 100 µM. Further, the GI50 with EKVX, with ACHN, in the assay with NCI-H23, with SF-539, in the assay with RXF 393 and with SF-295 was > 100 µM (inactive) throughout. The GI50 in the assay with Malme-3M was > 100 µM (inactive).
As to `Brc1ccc(/C=N/C23CC4CC(CC(C4)C2)C3)cc1`, the GI50 was > 100 µM (inactive) with SF-268; > 100 µM (inactive) in the assay on SK-MEL-2; > 100 µM (inactive) in the assay with OVCAR-8; > 100 µM (inactive) with HCT-116; > 100 µM (inactive) in the assay on UACC-62; above 100 µM in the assay with HCT-15. The GI50 in the assay with EKVX, in the assay with OVCAR-5, with ACHN, with NCI-H23, with SF-539 and in the assay with RXF 393 was > 100 µM (inactive) each time. Also, the GI50 in the assay on SF-295 and in the assay on Malme-3M was > 100 µM (inactive) throughout.
